According to PubChem BioAssay (NCI):
Several values for one entry are separate records, joined by “and”; a condition that tells them apart may be missing. Equal values may be shown once.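 A five-concentration, 48-hour dose response in 96-well plates underlies each endpoint, interpolated linearly between surrounding concentrations. The concentration for 50% growth inhibition is given as GI50. TGI is the concentration that stops growth completely.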

How the values were obtained:
Test in all cases: inhibition of tumour cell growth, NCI panel, 48 h
[1] = test system: MALME-3M melanoma
[2] = test system: UACC-257 melanoma
[3] = test system: 786-0 renal
[4] = test system: UACC-62 melanoma
[5] = test system: EKVX NSCLC
[6] = test system: MDA-MB-435
[7] = test system: TK-10 renal
[8] = test system: OVCAR-8 ovarian
[9] = test system: MOLT-4 leukemia
[10] = test system: SK-MEL-28 melanoma

Row | SMILES | TGI [1] | TGI [2] [µM] | TGI [3] | TGI [4] [µM] | GI50 [5] [µM] | TGI [5] | TGI [6] [µM] | TGI [7] | GI50 [8] | TGI [8] | GI50 [9] | TGI [9] [µM] | GI50 [10] [µM] | TGI [10] [µM] | GI50 [1] [µM] | GI50 [2] [µM] | GI50 [3] [µM] | GI50 [4] | GI50 [6] | GI50 [7]
1 | C[N+](C)(C)CC1CCC(C[N+](C)(C)C)C1=O (stereo not given) | 2.28 µM | 9.05 | 4.06 µM | 17.9 | 4.43 | 17.5 µM | 30.7 | 6.39 µM | 14.3 µM | 38 µM | 0.25 µM | 0.801 | 5.99 | 11.1 | – | – | – | – | – | –
2 | O=C(NCCc1ccccc1)Nc1ccc2cc3ccc(NC(=O)NCCc4ccccc4)cc3nc2c1 | 1.97 µM | 4.07 | 6.93 µM | 2.74 | 3.49 | 21.8 µM | 2.13 | 24.8 µM | 0.807 µM | 2.7 µM | 0.258 µM | 0.697 | 1.43 | 2.8 | 0.59 | 1.86 | 2.07 | 1.29 µM | 0.813 µM | 4.98 µM
3 | CN(C)C(=O)OCc1nc2c(N3CCOCC3)nc(-c3ccccc3)nc2n1C | 2.96 µM | 2.93 | 2.31 µM | 2.73 | 1.44 | 2.95 µM | 2.27 | 2.81 µM | 1.26 µM | 3.24 µM | 0.497 µM | 3.14 | 1.55 | 2.9 | 1.57 | 1.36 | 0.892 | 1.39 µM | 0.891 µM | 1.46 µM
4 | CC[C@@]1(OC(=O)C(N)CCCCN)C(=O)OCc2c1cc1n(c2=O)Cc2cc3ccccc3nc2-1 (stereo not given in full) | 1.79 µM | 1.56 | 0.163 µM | 0.0707 | – | > 30.6 µM | 1.26 | 65.9 µM | – | 3.1 µM | – | 0.13 | – | 16.1 | – | – | – | – | – | –
5 | Cc1ccc(Nc2cc(Cl)c([N+](=O)[O-])cc2[N+](=O)[O-])cc1 | 14 µM | 15.7 | 14 µM | 15.6 | 14.7 | 29.7 µM | 10.8 | 17.5 µM | 3.37 µM | 13.9 µM | 3.87 µM | > 52.4 | 2.77 | 7.27 | 5.72 | 5.25 | 3.97 | 4.13 µM | 3.07 µM | 6.03 µM
6 | CNC(=O)c1cc(Oc2cccc3nc(NC(=O)Nc4cc(C(F)(F)F)cc(C(F)(F)F)c4)ccc23)ccn1 | 12.9 µM | 44.1 | 5.73 µM | 22.5 | 4.46 | 86.3 µM | > 100 | 11.5 µM | 5.09 µM | 26.8 µM | 35.9 µM | > 100 | 4.67 | > 100 | 2.62 | 13.2 | 2.41 | 3.56 µM | 4.7 µM | 3.22 µM
7 | CCCCCCCCCC[C@@H](O)[C@@H]1CC[C@@H]([C@@H]2CC[C@@H]([C@@H](O)CCCCCCCCCC[C@H](O)CC3=CC(C)OC3=O)O2)O1 (stereo not given in full) | 3.86 µM and 7.42 µM | 7.89 | 7.95 µM and 12.1 µM | – | 1.98 | 8.5 µM and > 80 µM | – | 9.07 µM and 26 µM | – | 8.06 µM and > 54.7 µM | 2.93 µM | – | 5.25 | > 28.8 | 2.13 | < 0.0462 | 2.49 | 7.27 µM | 4.04 µM | 5.18 µM
8 | c1ccc(CN2CCc3[nH]c4ccccc4c3C2)cc1 | 35 µM | 37.1 | 44.5 µM | 66.9 | – | > 86.8 µM | 46.7 | > 71 µM | – | > 77.4 µM | – | 66.1 | – | 32.8 | – | – | – | – | – | –
9 | O=C(O)C1CC=CCC1C(=O)Nc1cccc(O)c1 (stereo not given) | > 100 µM | > 100 | > 100 µM | > 100 | – | > 100 µM | > 100 | > 100 µM | – | > 100 µM | – | > 100 | – | > 100 | – | – | – | – | – | –
10 | COc1cccc(/C=C/c2nc3c(cnn3-c3ccccc3)c(=O)[nH]2)c1 | > 100 µM | > 100 | > 100 µM | > 100 | 65.8 | > 100 µM | > 72.4 | > 100 µM | > 54.7 µM | > 100 µM | > 100 µM | > 100 | > 100 | > 100 | > 100 | > 100 | 12.4 | > 100 µM | 0.447 µM | > 28.2 µM
11 | Cc1cc(-c2nnc(/C=C/c3ccc4c(c3)OCO4)o2)n[nH]1 | > 50 µM | > 50 | > 50 µM | > 50 | 17.9 | > 50 µM | 2.52 | > 50 µM | 22.8 µM | > 50 µM | 3.39 µM | 39.5 | 24.1 | > 50 | 8.96 | 23 | 16.7 | 15.3 µM | 0.915 µM | 22.3 µM
12 | CC(C)(C)OC(=O)NCCCCn1c2c(c3ccccc3c1=O)C(=O)c1ccccc1-2 | 80.6 µM | 71.1 | 55.6 µM | 27.8 | 61.5 | > 100 µM | > 100 | 47.7 µM | 8.75 µM | 30.3 µM | 4.32 µM | > 100 | 38.2 | > 100 | 27.1 | 29.7 | 21.7 | 10.9 µM | 35.3 µM | 20.7 µM
13 | CC1=C(/C=C/C(=O)CC(=O)/C=C/C2=C(C)CCCC2(C)C)C(C)(C)CCC1 | > 100 µM | 63.5 | > 100 µM | 44.7 | 15.5 | 52.8 µM | > 100 | > 100 µM | 30.3 µM | > 100 µM | 6.51 µM | 32.6 | 27 | > 100 | 38.1 | 20.6 | 25.2 | 19.1 µM | 38.1 µM | 28.1 µM
14 | CC(C)(C)c1cc(C(=O)Nc2ccc(C(=O)NCCN)cc2)cc(C(C)(C)C)c1 | 3.13 µM | 37.4 | 3.07 µM | 3.56 | 2.04 | 14.5 µM | 3.09 | 9.64 µM | 3.39 µM | 10.9 µM | 2.63 µM | 7.3 | 1.79 | 3.67 | 1.43 | 17.7 | 1.56 | 1.86 µM | 1.52 µM | 2.99 µM
15 | O=C1CC[C@H](N2Cc3c(OCc4ccc(CN5CCOCC5)cc4)cccc3C2=O)C(=O)N1 | > 100 µM | > 100 | > 100 µM | > 100 | > 100 | > 100 µM | > 100 | > 100 µM | > 100 µM | > 100 µM | > 100 µM | > 100 | > 100 | > 100 | > 100 | > 100 | > 100 | > 100 µM | > 100 µM | > 100 µM
16 | COCCOCCOCc1n(Cc2ccc3ccccc3c2)c2ccccc2[n+]1Cc1ccc2ccccc2c1 | 1.38 µM | 0.988 | 2.65 µM | 1.45 | 1.04 | 2.68 µM | 1.23 | 2.15 µM | 0.421 µM | 1.74 µM | 0.693 µM | 2.43 | 0.503 | 1.92 | 0.351 | 0.289 | 1.31 | 0.329 µM | 0.282 µM | 0.772 µM
17 | Cc1ccc(C(=O)NCCCOc2ccc(N3C(N)=NC(N)=NC3(C)C)cc2Cl)cc1S(=O)(=O)F | > 100 µM | > 100 | > 100 µM | > 100 | > 100 | > 100 µM | > 100 | > 100 µM | 85.8 µM | > 100 µM | > 100 µM | > 100 | 74.7 | > 100 | > 100 | > 100 | 80 | 9.39 µM | 56.7 µM | > 100 µM
18 | CCN(CC)c1c(-c2ccccc2)n[nH]c1C(=O)OC | 41.5 µM | 36.5 | 96.2 µM | 37.7 | 21.2 | 56.8 µM | 55.6 | 59.2 µM | 15.5 µM | 44.9 µM | 18.6 µM | 58.2 | 22.2 | > 100 | 15.9 | 12.6 | 32.7 | 15.5 µM | 20.1 µM | 22.5 µM
19 | Cc1ccc(S(=O)(=O)OCC#CCOS(=O)(=O)c2ccc(C)cc2)cc1 | 4.1 µM | 4.07 | 7.15 µM | 12.6 | 2.08 | 4.38 µM | 4.3 | 6.27 µM | 2.45 µM | > 21.5 µM | 2.39 µM | 7.81 | 2.69 | 7.8 | 1.97 | 1.92 | 2.57 | 3.96 µM | 1.9 µM | 2.37 µM
20 | CCOC(=O)Nc1nc2ccccc2[nH]1 | > 100 µM | > 100 | > 100 µM | > 100 | > 24 | > 100 µM | 4 | > 100 µM | 7.6 µM and 7.04 µM | > 100 µM | 4.57 µM and 5 µM | > 100 | 8.43 | > 100 | 5.18 | 3.77 | 7.37 | 5.38 µM and 4.46 µM | 1.28 µM and 0.674 µM | 11.3 µM and > 27 µM
21 | OB(O)c1ccccc1C#Cc1ccccc1B(O)O | 44.2 µM | 17.3 | > 100 µM | 30.8 | – | 54.2 µM | 49 | 53.2 µM | – | > 100 µM | – | > 100 | – | 99.3 | – | – | – | – | – | –
